Reference: US4293553A, “1-Phthalazone derivatives, and use thereof” (Ishikawa; Masayuki, priority 1978, dated 1981)

Test: Acute toxicity, LD50 in mice (Litchfield and Wilcoxon)
Conditions: mouse, in vivo, po
Protocol: LD50 values were determined in mice and calculated according to the method of Litchfield and Wilcoxon described in J. Pharmacol. Exp. Ther., 96, 99 (1949).

SMILES	LD50 [mg/kg]
CCOC(=O)c1c(C)cc2cnn(-c3ccccc3F)c(=O)c2c1C [7-ethoxycarbonyl-6,8-dimethyl-2-(o-fluorophenyl)-1-phthalazone]	450
CCOC(=O)c1c(C)cc2cnn(-c3ccccc3)c(=O)c2c1C [7-ethoxycarbonyl-6,8-dimethyl-2-phenyl-1-phthalazone]	480
CCOC(=O)c1c(C)cc2cnn(-c3ccccc3Cl)c(=O)c2c1C [7-ethoxycarbonyl-6,8-dimethyl-2-(o-chlorophenyl)-1-phthalazone]	386
CCOC(=O)c1c(C)cc2c(CO)nn(-c3ccccc3Cl)c(=O)c2c1C [7-ethoxycarbonyl-6,8-dimethyl-2-(o-chlorophenyl)-4-hydroxymethyl-1-phthalazone]	564
CCOC(=O)c1c(C)cc2c(CO)nn(-c3ccccc3)c(=O)c2c1C [7-ethoxycarbonyl-6,8-dimethyl-4-hydroxymethyl-2-phenyl-1-phthalazone]	540
